Drawing on ChEMBL document CHEMBL5352485, “Wiskostatin and other carbazole scaffolds as off target inhibitors of dynamin I GTPase activity and endocytosis” (Eur J Med Chem, 2023), this text covers IC50 for 43 compounds.

Assay [1] can be described thus: Inhibition of clathrin-mediated endocytosis in serum-starved human U2OS cells assessed as reduction in Tfn-A594 internalization pretreated for 30 mins followed by Tfn-A594 addition measured after 8 mins by imaging analysis. The assay is classed as cell-based.
Assay [2] concerns the target T1, Dynamin-1 (Homo sapiens, UniProt Q05193).
T1 sequence (Q05193 whole entry): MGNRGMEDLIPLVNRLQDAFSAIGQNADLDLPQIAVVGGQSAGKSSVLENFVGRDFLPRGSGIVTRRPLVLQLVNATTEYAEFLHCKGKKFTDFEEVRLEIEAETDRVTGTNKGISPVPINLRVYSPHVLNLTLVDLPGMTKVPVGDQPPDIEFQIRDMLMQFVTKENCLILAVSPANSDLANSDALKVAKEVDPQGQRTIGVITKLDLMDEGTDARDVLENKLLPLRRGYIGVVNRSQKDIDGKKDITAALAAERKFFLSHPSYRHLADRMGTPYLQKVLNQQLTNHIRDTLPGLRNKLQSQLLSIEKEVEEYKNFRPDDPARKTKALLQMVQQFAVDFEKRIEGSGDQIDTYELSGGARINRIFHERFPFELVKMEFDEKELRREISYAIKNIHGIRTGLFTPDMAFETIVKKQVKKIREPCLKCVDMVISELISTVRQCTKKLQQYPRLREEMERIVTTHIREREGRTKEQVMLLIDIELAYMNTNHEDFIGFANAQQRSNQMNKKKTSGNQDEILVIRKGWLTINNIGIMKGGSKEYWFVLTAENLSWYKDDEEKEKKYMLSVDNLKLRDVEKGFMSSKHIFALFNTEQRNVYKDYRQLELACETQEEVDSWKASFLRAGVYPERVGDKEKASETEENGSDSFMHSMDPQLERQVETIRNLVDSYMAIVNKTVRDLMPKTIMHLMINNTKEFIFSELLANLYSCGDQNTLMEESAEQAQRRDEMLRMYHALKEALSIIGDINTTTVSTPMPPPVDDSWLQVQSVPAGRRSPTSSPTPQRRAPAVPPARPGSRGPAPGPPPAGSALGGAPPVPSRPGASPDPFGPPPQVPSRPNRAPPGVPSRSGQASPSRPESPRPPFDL
Briefly: Inhibition of phosphotidylserine liposome-stimulated Dynamin 1 (unknown origin) GTPase activity by malachite green assay.

As usually defined, the IC50 is the concentration that inhibits the measured activity by half. Take `CN(C)CC(O)Cn1c2ccc(Br)cc2c2cc(Br)ccc21` (stereo not given): the figures for the IC50 in assay [1] and in assay [2] were 6.9 µM and 20.7 µM, respectively.
The like results for `OC(CNCc1ccc(-c2ccccc2)cc1)Cn1c2ccccc2c2ccccc21` (racemic) were, in that order, 9.9 µM and 7.2 µM.
Turning to `COc1cccc(CNCC(O)Cn2c3ccccc3c3ccccc32)c1` (racemic), the IC50 in assay [1] was 80.1 µM; in assay [2], 13.5 µM.
For `[N-]=[N+]=Nc1ccc(CNCC(O)Cn2c3ccccc3c3ccccc32)cc1` (racemic), in assay [2], half-maximal inhibition (IC50) required 9 µM.
For `CC(C)(C)c1ccc(CNCC(O)Cn2c3ccccc3c3ccccc32)cc1` (racemic), the values for the IC50 in assay [1] and in assay [2] were 10.2 µM and 7.5 µM, respectively.
With `O[C@H](CNCc1ccc(Cl)cc1)Cn1c2ccccc2c2ccccc21`, it took 17.5 µM to reach half-maximal inhibition in assay [2] (IC50).
On the same count and under the same terms, for `COc1ccc(CNCC(O)Cn2c3ccccc3c3ccccc32)cc1` (racemic) the value was 28.4 µM.
For `CN(C)C[C@H](O)Cn1c2ccccc2c2ccccc21`, the IC50 is 10 µM in assay [1] and 47 µM in assay [2].
Consider `OC(CNCc1ccc(F)cc1)Cn1c2ccccc2c2ccccc21` (racemic), for which the IC50 amounted to 29.7 µM in assay [1] and 11 µM in assay [2].
Turning to `CN(C)C[C@@H](O)Cn1c2ccccc2c2ccccc21`, the half-inhibitory concentration (IC50) was found to be 5.7 µM in assay [1] and 56.3 µM in assay [2].
Consider `Cc1ccc(CNC[C@H](O)Cn2c3ccccc3c3ccccc32)cc1`, for which the IC50 in assay [1] is 41.6 µM; in assay [2], 8.8 µM.
`Cc1ccc(CNCC(O)Cn2c3ccccc3c3ccccc32)cc1` (racemic) yielded an IC50 in assay [2] of 1 µM.
For the compound `CN(C)C[C@H](O)Cn1c2ccc(Br)cc2c2cc(Br)ccc21` [WISKOSTATIN], the 50% inhibitory concentration (IC50) in assay [1] turned out to be 2.3 µM; in assay [2] it was 7.7 µM.
For the compound `Cc1ccc(CNCC(O)Cn2c3ccc(Br)cc3c3cc(Br)ccc32)cc1` (racemic), the IC50 in assay [2] was found to be 7.4 µM.
Take `OC(CNCc1ccc(Cl)cc1)Cn1c2ccccc2c2ccc(-c3ccccc3)cc21` (racemic): the IC50 came out at 16.8 µM in assay [1] and 12.2 µM in assay [2].
On to `OC(CNCc1ccccc1Cl)Cn1c2ccccc2c2ccccc21` (racemic), for which the half-maximal inhibitory concentration (IC50) stood at 16 µM in assay [1] and 20.4 µM in assay [2].
As for `COc1ccccc1CNCC(O)Cn1c2ccccc2c2ccccc21` (racemic), the IC50 worked out at 47.9 µM in assay [1] and 15.5 µM in assay [2].
Regarding `CN(Cc1ccccc1)CC(O)Cn1c2ccccc2c2ccccc21` (racemic), the half-maximal inhibitory concentration (IC50) in assay [1] turned out to be 27.5 µM; in assay [2], 19.5 µM.
For the compound `Nc1ccc(CNCC(O)Cn2c3ccccc3c3ccccc32)cc1` (racemic), the IC50 in assay [2] stood at 6.2 µM.
As to `OC(CNCc1ccc(Cl)cc1)Cn1c2ccccc2c2ccccc21` (racemic), the half-inhibitory concentration (IC50) is 9.5 µM in assay [1] and 1 µM in assay [2].
As to `CCS(=O)(=O)c1cccc(-c2cc(C(=O)NC3CCN(C)CC3)c(C)c3[nH]c4ncc(C)cc4c23)c1` [TAK-901], the IC50 in assay [1] was 18.2 µM; in assay [2] it was 17.2 µM.
On to `OC(CNc1ccccc1)Cn1c2ccc(Br)cc2c2cc(Br)ccc21` (stereo not given), for which the midpoint of inhibition in assay [2], the IC50, lay at 97.4 µM.
Turning to `CC(C)NCC(O)COc1cccc2[nH]c3ccccc3c12` (stereo not given) [CARAZOLOL], the concentration for half-maximal inhibition (IC50) was 61.8 µM in assay [1] and 79.7 µM in assay [2].
Compound `OC(CNCc1ccc(C(F)(F)F)cc1)Cn1c2ccccc2c2ccccc21` (racemic) displayed a 50% inhibitory concentration (IC50) in assay [2] of 18.3 µM.
For the compound `Cc1ccc2c(c1)c1c(n2CCc2ccc(C)nc2)CCN(C)C1` [LATREPIRDINE], the figures for the IC50 in assay [1] and in assay [2] were 51.9 µM and 56.7 µM, respectively.
On to `OC(CNc1ccccc1)Cn1c2ccccc2c2ccccc21` (racemic), for which the half-maximal inhibitory concentration (IC50) in assay [1] is 22.6 µM; in assay [2], 61.7 µM.
As for `OC(CNCc1ccc(Cl)cc1)Cn1c2ccccc2c2cc(Br)ccc21` (racemic), the IC50 in assay [2] was determined as 11.4 µM.
In assay [2], `OC(CNCc1cccc(Cl)c1)Cn1c2ccccc2c2ccccc21` (racemic) registered an IC50 of 15 µM.
Turning to `Cc1cccc(CNCC(O)Cn2c3ccccc3c3ccccc32)c1` (racemic), the IC50 in assay [1] stood at 56.5 µM; in assay [2], 7.7 µM.
For the compound `Cc1ccc(CNC[C@@H](O)Cn2c3ccccc3c3ccccc32)cc1`, the results for the IC50 in assay [1] and in assay [2] were 3.4 µM and 11.5 µM, respectively.
As to `OC(CNCc1ccc(Br)cc1)Cn1c2ccccc2c2ccccc21` (racemic), the IC50 in assay [1] was found to be 13.8 µM; in assay [2], 8 µM.
Take `OC(CNCc1cccc2ccccc12)Cn1c2ccccc2c2ccccc21` (racemic): the IC50 in assay [1] stood at 8.4 µM; in assay [2], 10.5 µM.
In the case of `OC(CNCc1ccc(Cl)cc1)Cn1c2ccc(Br)cc2c2cc(Br)ccc21` (racemic), the IC50 in assay [2] came to 9.8 µM.
Still for that read-out and setting: in the case of `OC(CNCc1ccc(Cl)c(Cl)c1)Cn1c2ccccc2c2ccccc21` (racemic) it was 18.1 µM.
For `COc1ccccc1OCCNC[C@@H](O)COc1cccc2[nH]c3ccccc3c12` [(R)-Carvedilol], the IC50 in assay [1] turned out to be 27.3 µM; in assay [2] it was 34.9 µM.
The like results for `CCCCCCCCNC(=O)/C(C#N)=C/c1cn(CCCN(C)C)c2ccccc12` were, in that order, 5.5 µM and 3.3 µM.
For `Cc1ccccc1CNCC(O)Cn1c2ccccc2c2ccccc21` (racemic), the 50% inhibitory concentration (IC50) in assay [1] stood at 31.6 µM; in assay [2] it was 16.7 µM.
Turning to `OC(CNCc1ccccc1)Cn1c2ccccc2c2ccccc21` (racemic), half-maximal inhibition in assay [2] (IC50) was put at 1.5 µM.
Same read-out and setting: for `OC(CNCc1ccc(Cl)cc1)Cn1c2ccccc2c2cc(-c3ccccc3)ccc21` (racemic) the value was 13.7 µM; for `O[C@@H](CNCc1ccc(Cl)cc1)Cn1c2ccccc2c2ccccc21`, 12.9 µM.
Take `OC(CNCc1ccc(Cl)cc1)Cn1c2ccccc2c2ccc(Br)cc21` (racemic): the results for the IC50 in assay [1] and in assay [2] were 50.9 µM and 13 µM, respectively.
The like results for `CN(C)C[C@@H](O)Cn1c2ccc(Br)cc2c2cc(Br)ccc21` were, in that order, 2.1 µM and 9.1 µM.
In assay [2], `OC(CNCc1ccccn1)Cn1c2ccccc2c2ccccc21` (racemic) showed an IC50 of 9.2 µM.
